Reference: patent US9783532B2, “Molecules having certain pesticidal utilities, and intermediates, compositions, and processes related thereto” (Dow AgroSciences LLC, priority 2013, dated 2017)

Key:
Type in all cases: in vivo
[1] = system: Beet Armyworm (Spodoptera exigua) ("BAW"); assay: Bioassay on beet armyworm (BAW), 128-well diet tray assay; settings: 168 h, 50 μg/cm^2 on artificial diet, second instar BAW larvae, 25° C., five to seven days, average of eight wells, read-out: BAW % Control (or Mortality) rating
How it was run: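 Percent mortality, averaged across eight wells, was read after five to seven days at 25° C. under 14:10 light-dark. Each well held one to five second-instar larvae on artificial diet that had been treated with 50 μg/cm^2 compound in 90:10 acetone-water and dried.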

[2] = system: Cabbage Looper (Trichoplusia ni) ("CL"); assay: Bioassay on cabbage looper (CL), 128-well diet tray assay; settings: 168 h, 50 μg/cm^2 on artificial diet, second instar CL larvae, 25° C., five to seven days, average of eight wells, read-out: CL % Control (or Mortality) rating
How it was run: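 Percent mortality, averaged across eight replicate wells, was read after five to seven days at 25 °C under a 14:10 photoperiod. Each well held one to five second-instar T. ni on diet carrying a dried 50 μg/cm^2 dose applied in acetone-water 90:10.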

[3] = system: Green Peach Aphid ("GPA") (Myzus persicae); assay: Bioassay on green peach aphid (GPA), foliar spray on cabbage seedlings; settings: Myzus persicae, foliar, 72 h; 200 ppm spray on infested cabbage seedlings, three days, Abbott corrected % control; read-out: GPA % Control (or Mortality) rating
Description: Certain molecules disclosed in this document were tested against GPA using procedures described in the following example. In the reporting of the results, the “GPA Rating Table” was used (See Table Section).
Cabbage seedlings grown in 3-inch pots, with 2-3 small (3-5 cm) true leaves, were used as test substrate. The seedlings were infested with 20-50 GPA (wingless adult and nymph stages) one day prior to chemical application. Four pots with individual seedlings were used for each treatment. Test compounds (2 mg) were dissolved in 2 mL of acetone/methanol (1:1) solvent, forming stock solutions of 1000 ppm test compound. The stock solutions were diluted 5× with 0.025% Tween 20 in water to obtain the solution at 200 ppm test compound. A hand-held aspirator-type sprayer was used for spraying a solution to both sides of […] leaves until runoff. Reference plants (solvent check) were sprayed with the diluent only containing 20% by volume of acetone/methanol (1:1) solvent. Treated plants were held in a holding room for three days at approximately 25° C. and ambient relative humidity (RH) prior to grading. Evaluation was conducted by counting the number of live aphids per plant under a microscope. Percent Control was measured by using Abbott's correction formula (W. S. Abbott, “A Method of Computing the Effectiveness of an Insecticide” J. Econ. Entomol. 18 (1925), pp. 265-267) as follows. Corrected % Control=100*(X−Y)/X • where • X=No. of live aphids on solvent check plants and • Y=No. of live aphids on treated plants

[4] = system: Yellow Fever Mosquito "YFM" (Aedes aegypti); settings: about 1 day-old larvae, 96-well plate, room temperature, 3 days, mortality
How it was run: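 About 1 day-old Aedes aegypti larvae in liver-powder water added to wells holding compound diluted from 4000 ppm DMSO stock with 90:10 water:acetone, 6 replicate plates. Plates kept covered at room temperature for 3 days. Wells scored for mortality and reported as rating categories.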

Work on Cc1ccc(C(C)C)c(N2C(=O)CS/C2=N\C(=O)NCCc2ccc(-c3ncn(-c4ccc(C(F)(F)F)cc4)n3)cc2)c1 [P52, (Z)-1-(3-(2-isopropyl-5-methylphenyl)-4-oxothiazolidin-2-ylidene)-3-(4-(1-(4-(trifluoromethyl)phenyl)-1H-1,2,4-triazol-3-yl)phenethyl)urea] yielded a mortality at 50 µg/cm2 [1] of 50 to 100%, a mortality at 50 µg/cm2 [2] of 50 to 100% and a mortality at 200 ppm [3] of 0%. For the same compound, the “YFM % Control (or Mortality) rating” value [4] was “A (80-100)”.

Compound CCc1ccccc1N1C(=O)CS/C1=N\C(=O)NCCCCc1ccc(-c2ncn(-c3ccc(OC(F)(F)F)cc3)n2)cc1 [P145, P522, (Z)-1-(3-(2-ethylphenyl)-4-oxothiazolidin-2-ylidene)-3-(4-(4-(1-(4-(trifluoromethoxy)phenyl)-1H-1,2,4-triazol-3-yl)phenyl)butyl)urea] has a mortality at 50 µg/cm2 [1] of 50 to 100%, a mortality at 50 µg/cm2 [2] of 50 to 100% and a mortality at 200 ppm [3] of 0%. For the same compound, the “YFM % Control (or Mortality) rating” value [4] was “A (80-100)”.

Cc1ccc(C(C)C)c(N2C(=O)CS/C2=N\C(=O)NCCCCc2ccc(-c3ncn(-c4ccc(OC(F)(F)F)cc4)n3)cc2)c1 [P150, P363, (Z)-1-(3-(2-isopropyl-5-methylphenyl)-4-oxothiazolidin-2-ylidene)-3-(4-(4-(1-(4-(trifluoromethoxy)phenyl)-1H-1,2,4-triazol-3-yl)phenyl)butyl)urea] showed a mortality at 50 µg/cm2 [1] of 50 to 100%, a mortality at 50 µg/cm2 [2] of 50 to 100% and a mortality at 200 ppm [3] of 0 to 80%. For the same compound, the “YFM % Control (or Mortality) rating” value [4] was “A (80-100)”.

Compound Cc1ccc(C(C)C)c(N2C(=O)CS/C2=N\C(=O)NCCCCc2ccc(-c3ncn(-c4ccc(C(F)(F)F)cc4)n3)cc2)c1 [P159, (Z)-1-(3-(2-isopropyl-5-methylphenyl)-4-oxothiazolidin-2-ylidene)-34-(4-(4-(1-(4-(trifluoromethyl)phenyl)-1H-1,2,4-triazol-3-yl)phenyl)butyl)urea] has a mortality at 50 µg/cm2 [1] of 50 to 100%, a mortality at 50 µg/cm2 [2] of 50 to 100% and a mortality at 200 ppm [3] of 0 to 80%. For the same compound, the “YFM % Control (or Mortality) rating” value [4] was “A (80-100)”.
